Read-outs that look alike come from different tables or passages of the source. Marks after values point to notes of the source that are not given here.
Columns and labels:
Sclerotinia sclerotiorum = experiment: Dosage effect of pure cardenolides on pathogen growth (Sclerotinia); format: cell-based; conditions: pure cardenolide
Protocol: Two different cardenolides (cymarin and strophanthidin) were assessed for their dosage effect on pathogen response.

Adonis [1] = conditions: at high pH
Protocol: Container trials were conducted on the effect of sand content and soil pH on metribuzin-associated Adonis mortality.

A. palaestina = experiment: Seed germination after gibberellic acid pre-soak; format: in vivo, Adonis palaestina
Protocol: Adonis […] populations were evaluated for seed viability and germination. Although seed viability is fair (about 30 to about 70%), germination is very low.

Weed [2] = experiment: Pre-emergence herbicide trial: weed control; format: in vivo
Adonis seedlings = system: Adonis seedlings
From the text: Seedlings emerging from metribuzin-treated soil were sprayed with a grass-specific herbicide [graminicide; (RS)-7-(4,6-dimethoxypyrimidin-2-ylthio)-3-methyl-2-benzofuran-1(3H)-one] at the seed leaf stage; this would normally be expected to “check” the seedlings (i.e.; cause a degree of non-lethal stress) when applied at the usual time (three true leaf stage).

Rainbow trout = Rainbow trout feeding trial: astaxanthin levels in fillets before and after freezing and smoking; format: in vivo; conditions: averaged over three fillet zones
Protocol: (§1) Rainbow trout fed synthetic or Adonis-derived astaxanthin in a feeding trial were harvested 63 days after the feeding trial started and the astaxanthin levels were examined spectrophotometrically (Minolta Chroma Meter) and chemically (by HPLC analysis after lipid removal from the flesh extract) before and after freezing (2 months) and smoking. The initial astaxanthin levels in the feed were adjusted to achieve similar levels of pigmentation of the fish before treatments were carried out. Because pigment levels vary along the length of the fish, measurements were carried out at three positions along each fish (head, mid-body and tail).

[3] = as above; format: in vivo; conditions: rainbow trout, fillet (flesh), oral, Control treatment, averaged over three fillet zones, read-out: HPLC astaxanthin level Average
Protocol: as §1

Weed [4] = experiment: Container trials: weed control at reduced metribuzin level; format: in vivo
Adonis [5] = experiment: Pre-emergence herbicide trial: Adonis seedling establishment; format: in vivo, Adonis palaestina; conditions: for Adonis seedling density: after graminicide stress treatment
[6] = 25 % manufacturer's recommended rate
[7] = 50 % manufacturer's recommended rate
[8] = 12.5 % manufacturer's recommended rate

SMILES: C[C@]12CC[C@H]3[C@@H](CC[C@]4(O)C[C@@H](O)CC[C@]34C=O)[C@@]1(O)CC[C@@H]2C1=CC(=O)OC1 [strophanthidin]
- growth of Sclerotinia (Sclerotinia sclerotiorum): inhibited

SMILES: CCOP(=S)(OCC)Oc1nc(Cl)n(C(C)C)n1 [isazophos, O-(5-Chloro-1-(1-methylethyl)-1H-1,2,4-triazol-3-yl) O,O-diethyl phosphorothioate]
- interaction with metribuzin (Adonis mortality) (Adonis [1]): negative interaction

SMILES: C=C1C[C@]23C[C@@]1(O)CC[C@H]2[C@@]12C=C[C@H](O)[C@@](C)(C(=O)O1)[C@H]2[C@@H]3C(=O)O [Gibberellic acid, gibberellic acid]
- germination (A. palaestina; 24-hour incubation with GA in ethanol at room temperature): further improved germination
- % germination (A. palaestina; 1000 ppm, pre-soak 24 hours, 4 °C): 4.3%
- % germination (A. palaestina; 1000 ppm, pre-soak 24 hours, 16 °C): 8.7%
- % germination (A. palaestina; 1000 ppm, pre-soak 48 hours, 4 °C): 13.7%
- % germination (A. palaestina; 1000 ppm, pre-soak 48 hours, 16 °C): 22.3%
- % germination (A. palaestina; 2000 ppm, pre-soak 24 hours, 4 °C): 10.7%
- % germination (A. palaestina; 2000 ppm, pre-soak 24 hours, 16 °C): 12.6%
- % germination (A. palaestina; 2000 ppm, pre-soak 48 hours, 4 °C): 20.4%
- % germination (A. palaestina; 2000 ppm, pre-soak 48 hours, 16 °C): 28.7%
- % germination (A. palaestina; 3500 ppm, pre-soak 24 hours, 4 °C): 21.4%
- % germination (A. palaestina; 3500 ppm, pre-soak 24 hours, 16 °C): 25.7%
- % germination (A. palaestina; 3500 ppm, pre-soak 48 hours, 4 °C): 28.7%
- % germination (A. palaestina; 3500 ppm, pre-soak 48 hours, 16 °C): 45.7%
- % germination (A. palaestina; 5000 ppm, pre-soak 24 hours, 4 °C): 28.0%
- % germination (A. palaestina; 5000 ppm, pre-soak 24 hours, 16 °C): 34.7%
- % germination (A. palaestina; 5000 ppm, pre-soak 48 hours, 4 °C): 40.3%
- % germination (A. palaestina; 5000 ppm, pre-soak 48 hours, 16 °C): 64.7%
- germination (A. palaestina; pre-soaking seed in 5000 ppm for 24 hours before sowing): 64.7%

SMILES: CO[C@H]1C[C@H](O[C@H]2CC[C@]3(C=O)[C@H]4CC[C@]5(C)[C@@H](C6=CC(=O)OC6)CC[C@]5(O)[C@@H]4CC[C@]3(O)C2)O[C@H](C)[C@H]1O [cymarin]
- growth of Sclerotinia (Sclerotinia sclerotiorum): inhibited

SMILES: COC(=O)NS(=O)(=O)c1ccc(N)cc1 [Asulox ®, methyl(4-aminophenyl)sulfonylaminoformate]
- Weed density (Weed [2]; [6]): 86 % cover
- Weed density (Weed [2]; [7]): 74 % cover
- Weed density (Weed [2]; 100 % manufacturer's recommended rate): 87 % cover
- weed control (Weed [2]; pre-emergence herbicide): did not achieve much weed control

SMILES: NC(N)=O [Urea, urea]
- Adonis density (Adonis seedlings; Metribuzin 0 g/ha, −Graminicide, +Urea): 95 # plants m^−2

SMILES: CC1=C(/C=C/C(C)=C/C=C/C(C)=C/C=C/C=C(C)/C=C/C=C(C)/C=C/C2=C(C)C(=O)C(O)CC2(C)C)C(C)(C)CC(O)C1=O (stereo not drawn) [Synthetic, 3,3′-dihydroxy-β,β-carotene-4,4′-dione]
- Spectrophotometric (Hunter a values) Average (Rainbow trout; Control treatment, harvested 63 days): 6.5
- HPLC astaxanthin level Average (Rainbow trout; Frozen (2 months)): 11.2 mg/kg fish
- Spectrophotometric (Hunter a values) Average (Rainbow trout; Frozen (2 months)): 4.2
- HPLC astaxanthin level Average (Rainbow trout; Smoked): 14.0 mg/kg fish
- Spectrophotometric (Hunter a values) Average (Rainbow trout; Smoked): 5.8
- concentration at 63 days [3]: 15100 ng/g

SMILES: CSc1nnc(C(C)(C)C)c(=O)n1N [Metribuzin, 4-amino-6-tert-butyl-4,5-dihydro-3-methlythio-1,2,4-triazin-5-one]
- weed control (Weed [4]; 125 g/ha): inadequate
- weed control (Weed [4]; 250 g/ha): reasonable weed control
- Adonis seedling density (Adonis [5]; [8]): 12.1 m^−2
- Adonis seedling density (Adonis [5]; [6]): 5.9 m^−2
- Adonis seedling density (Adonis [5]; [7]): 1.2 m^−2
- safety on Adonis (Adonis [5]; pre-emergence herbicide): could be used safely on Adonis
- Weed density (Weed [2]; [8]): 85 % cover
- Weed density (Weed [2]; [6]): 79 % cover
- Weed density (Weed [2]; [7]): 56 % cover
- seedling death (Adonis seedlings; 500 g/ha metribuzin, graminicide sprayed at seed leaf stage): 30%
- Adonis density (Adonis seedlings; Metribuzin 250 g/ha, +Graminicide, −Urea): 97 # plants m^−2
- Adonis density (Adonis seedlings; Metribuzin 250 g/ha, −Graminicide, +Urea): 107 # plants m^−2
- Adonis density (Adonis seedlings; Metribuzin 250 g/ha, −Graminicide, −Urea): 103 # plants m^−2
- Adonis density (Adonis seedlings; Metribuzin 500 g/ha, +Graminicide, +Urea): 94 # plants m^−2
- Adonis density (Adonis seedlings; Metribuzin 500 g/ha, +Graminicide, −Urea): 65 # plants m^−2
- Adonis density (Adonis seedlings; Metribuzin 500 g/ha, −Graminicide, +Urea): 104 # plants m^−2
- Adonis density (Adonis seedlings; Metribuzin 500 g/ha, −Graminicide, −Urea): 98 # plants m^−2
- Adonis density (Adonis seedlings; Metribuzin (pre) + 250 (post) g/ha, +Graminicide, +Urea): 107 # plants m^−2
- Adonis density (Adonis seedlings; Metribuzin (pre) + 250 (post) g/ha, +Graminicide, −Urea): 105 # plants m^−2
- Adonis density (Adonis seedlings; Metribuzin (pre) + 250 (post) g/ha, −Graminicide, +Urea): 102 # plants m^−2
- Adonis density (Adonis seedlings; Metribuzin (pre) + 250 (post) g/ha, −Graminicide, −Urea): 100 # plants m^−2

Source: US7595171B2 (Sinotrade Technology Limited, priority 2005, dated 2009)
